This is an account of results in patent publication US9040547B2, “Pyrrolopyrimidine and purine derivatives” (PFIZER INC., priority 2011, dated 2015).

Holding throughout (assay type): cell-based
One experiment has as its target T1, EGFR Del (PC9) (Homo sapiens, UniProt P00533, DEL746-750).
T1 construct: endogenous in cells; host or cells: PC-9
Put plainly: EGFR ELISA, PC9 Del cells.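 Also: cellular EGFR autophosphorylation at Tyr1068 quantified by sandwich ELISA of cell lysates after 2 h compound exposure at 37 °C, 11-point threefold dilution series.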 The conditions noted are these: read-out: EGFR_ELISA9E PC9 Del IC50. For orientation: ELISA stands for enzyme-linked immunosorbent assay.

Experiment [1] concerns the target T2, EGFR L858R+T790M, endogenous (Homo sapiens, UniProt P00533, L858R/T790M).
T2 construct: NCI-H1975 (EGFR L858R+T790M, endogenous); host or cells: NCI-H1975
Nature of the experiment: pEGFR Y1068 ELISA assay, NCI-H1975 cells.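 Also: sandwich ELISA of endogenous phospho-EGFR (Tyr1068) in lysates of treated cells, 11-point 1:3 serial dilution tested in duplicate per plate.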 As to conditions: value marked (H1975): NCI-H1975 cells, 2 hrs compound treatment; read-out: pEGFRY1068 ELISA3T3T790M—L858R IC50 (nM), (H1975).

A further experiment concerns the target T3, EGFR L858R, endogenous (Homo sapiens, UniProt P00533, L858R).
T3 construct: NCI-H3255 (EGFR L858R, endogenous); endogenous in cells; host or cells: NCI-H3255
Nature of the experiment: pEGFR Y1068 ELISA assay, NCI-H3255 cells. As to conditions: value marked (H3255): NCI-H3255 cells, 2 hrs compound treatment; read-out: pEGFRY1068 ELISA3T3 L858R IC50 (nM), (H3255).

Experiment [2] deals with T4, EGFR wildtype, endogenous (Homo sapiens, UniProt P00533).
T4 construct: A549 (EGFR wildtype, endogenous); host or cells: A549
T4 sequence (P00533 25-1210): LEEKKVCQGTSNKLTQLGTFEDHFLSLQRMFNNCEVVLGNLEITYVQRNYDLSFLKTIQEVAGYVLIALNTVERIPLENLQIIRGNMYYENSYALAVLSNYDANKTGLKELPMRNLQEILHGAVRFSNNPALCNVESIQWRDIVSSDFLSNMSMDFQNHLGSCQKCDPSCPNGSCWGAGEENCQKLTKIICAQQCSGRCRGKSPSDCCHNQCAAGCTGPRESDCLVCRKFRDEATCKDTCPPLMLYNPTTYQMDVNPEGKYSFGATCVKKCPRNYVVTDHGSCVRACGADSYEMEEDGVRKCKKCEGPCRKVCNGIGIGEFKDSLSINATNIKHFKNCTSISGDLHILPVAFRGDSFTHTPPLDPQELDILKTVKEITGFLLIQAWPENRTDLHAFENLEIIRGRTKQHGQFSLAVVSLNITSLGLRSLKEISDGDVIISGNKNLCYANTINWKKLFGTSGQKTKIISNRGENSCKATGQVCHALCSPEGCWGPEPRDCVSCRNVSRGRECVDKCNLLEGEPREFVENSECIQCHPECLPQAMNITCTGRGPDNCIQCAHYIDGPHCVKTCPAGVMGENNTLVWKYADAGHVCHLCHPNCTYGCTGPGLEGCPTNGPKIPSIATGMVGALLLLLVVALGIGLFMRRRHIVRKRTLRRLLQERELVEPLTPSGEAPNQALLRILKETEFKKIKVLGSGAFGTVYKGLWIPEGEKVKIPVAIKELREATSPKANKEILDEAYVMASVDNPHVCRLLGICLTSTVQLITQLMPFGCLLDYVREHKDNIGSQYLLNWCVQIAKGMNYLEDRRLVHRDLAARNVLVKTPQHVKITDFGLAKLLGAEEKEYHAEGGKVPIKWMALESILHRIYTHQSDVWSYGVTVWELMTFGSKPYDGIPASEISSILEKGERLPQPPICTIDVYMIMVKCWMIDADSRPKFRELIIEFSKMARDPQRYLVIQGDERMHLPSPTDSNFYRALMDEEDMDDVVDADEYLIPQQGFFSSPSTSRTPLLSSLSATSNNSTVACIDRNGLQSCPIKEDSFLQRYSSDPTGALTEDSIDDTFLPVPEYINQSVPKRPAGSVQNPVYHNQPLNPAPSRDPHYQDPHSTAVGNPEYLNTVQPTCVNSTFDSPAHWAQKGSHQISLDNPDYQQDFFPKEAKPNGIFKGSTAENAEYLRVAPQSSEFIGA
Put plainly: pEGFR Y1068 ELISA assay, A549 cells.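 Also: sandwich ELISA of phospho-EGFR Tyr1068 in cell lysates, cells exposed to compound for 2 h before EGF stimulation, 11-point threefold dilution series run in duplicate.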 The conditions noted are these: full serum media, stimulated 10 min with EGF (40 ng/mL), read-out: pEGFRY1068 ELISAA549 IC50.

Another experiment has as its system NIH3T3/EGFR_L858R. Put plainly: Cell proliferation assay (CellTiter-Glo), NIH3T3/EGFR_L858R. The conditions noted are these: Mus musculus, NIH3T3, 120 h, 3T3 cell line, three to five days of compound treatment, read-out: 3T3 L858R IC50. Here is the method: (§1) Cell proliferation was measured using the CellTiter-Glo® Luminescent Cell Viability Assay. The assay involves the addition of a single reagent (CellTiter-Glo® Reagent) directly to cells cultured in serum-supplemented medium. The assay uses this one-step addition to induce cell lysis and generate a luminescent signal proportional to the amount of ATP present which is directly proportional to the number of metabolically active cells present in culture. The following cell lines were evaluated in this assay: NIH3T3/EGFR_L858R, NIH3T3/EGFR_E746-A750_deletion, NIH3T3/EGFR L858R+T790M, NIH3T3/EGFR_E746-A750_deletion+T790M, PC-9, PC9-DRH, NCI-H1975, and NCI-H3255. NIH/3T3 parental cells, NCI-H1975, and NCI-H3255 were purchased from the American Type Culture Collection (Manassas, Va.), and PC-9 cells were obtained from Japan. All cells were cultured according to recommendations. NIH/3T3 cells were grown in DMEM (Invitrogen, Carlsbad, Calif.) supplemented with 10% newborn calf serum (Invitrogen), and NIH3T3/EGFR mutant cells were grown in complete media with 5 μg/mL puromycin (Invitrogen). PC-9, NCI-H1975, and NCI-H3255 were grown in RPMI (Invitrogen, Carlsbad, Calif.) supplemented with 10% FBS (Sigma, St Louis, Mo.), and PC9-DRH cells were grown in complete media with 2 uM PF-00299804. Plasmids (pLPCX) with various EGFR constructs were made by GenScript (Piscataway, N.J.), and stable pools of NIH/3T3 cells expressing these constructs were made at Pfizer La Jolla. PC9-DRH cells were generated at Pfizer La Jolla by exposing cells to increasing concentrations of PF-00299804. Cells were plated in complete culture media (3000-5000 cells/well, 50 μl/well) on the bottom of white clear-bottom tissue culture treated microtiter plates (#3610, Corning Inc, Corning, N.Y.) and allowed to adhere overnight at 37° C., 5% CO2. The following day, compound dilution plates were prepared in 96 well clear V-bottom 0.5 mL polypropylene block plates (#3956, Corning, Inc). All cell lines were not evaluated for each compound. Each compound evaluated was prepared as a DMSO stock solution (10 mM). Compounds were tested in duplicate on each plate, with an 11-point serial dilution curve (1:3 dilution). Compound treatment (50 μl) was added from the compound dilution plate to the cell plate. The highest compound concentration was 1 or 10 μM (final), with a 0.3% final DMSO (#D-5879, Sigma, St Louis, Mo.) concentration. Plates were then incubated at 37° C., 5% CO2. After three to five days of compound treatment, CellTiter-Glo® Reagent (#G7573, Promega, Madison, Wis.) was prepared in one of two ways. If thawing a frozen aliquot of CellTiter-Glo® Reagent, the aliquot was thawed and equilibrated to room temperature prior to use while keeping it protected from light. Alternatively, new bottles of CellTiter-Glo® Buffer and CellTiter-Glo® Substrate were thawed and equilibrated to room temperature prior to use. CellTiter-Glo® Buffer (100 mL) was transferred into the amber bottle containing CellTiter-Glo® Substrate to reconstitute the lyophilized enzyme/substrate mixture, forming the CellTiter-Glo® Reagent. The reconstituted reagent was mixed by gently inverting the contents to obtain a homogeneous solution, and went into solution easily in less than one minute. Any unused reconstituted CellTiter-Glo® Reagent was immediately aliquoted and frozen at −20° C., protected from light. Cell plates were equilibrated at room temperature for approximately 30 minutes. An equivolume amount of CellTiter-Glo® Reagent (100 μL) was added to each well. Plates were mixed for two minutes on an orbital shaker to induce cell lysis, and then allowed to incubate at room temperature for 10 minutes to stabilize the luminescent signal. Luminescence was recorded using the PerkinElmer EnVision Excite Multilabel Reader used for endpoint reading for Luminescence detection (Waltham, Mass.). Data were analyzed using a four-parameter fit in Microsoft Excel. […]
Background: Cellular ATP, detected with luciferase, serves as a proxy for viable cell number.

Another experiment has as its system NIH3T3/EGFR L858R+T790M. Put plainly: Cell proliferation assay (CellTiter-Glo), NIH3T3/EGFR L858R+T790M. The conditions noted are these: Mus musculus, NIH3T3, 120 h, 3T3 cell line, three to five days of compound treatment, read-out: 3T3 L858R_T790M IC50.
The subject of experiment [3] is NIH3T3/EGFR_E746-A750_deletion. Nature of the experiment: Cell proliferation assay (CellTiter-Glo), NIH3T3/EGFR_E746-A750_deletion. As to conditions: Mus musculus, NIH3T3, 120 h, 3T3 cell line, three to five days of compound treatment, read-out: 3T3 del IC50. Here is the method: as §1
A further experiment concerns the target EGFR L858R (Homo sapiens, UniProt P00533, L858R). Nature of the experiment: pEGFR Y1068 ELISA assay, NIH3T3/EGFR_L858R cells.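 Also: sandwich ELISA of phospho-EGFR Tyr1068 in lysates of stably transfected NIH/3T3 pools after 2 h compound exposure at 37 °C, 11-point threefold dilution series run in duplicate.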 The conditions noted are these: 3T3 cell line, 2 hrs compound treatment; read-out: pEGFRY1068 ELISA3T3 L858R IC50.
The subject of experiment [4] is NIH3T3/EGFR_E746-A750_deletion+T790M. Nature of the experiment: Cell proliferation assay (CellTiter-Glo), NIH3T3/EGFR_E746-A750_deletion+T790M. The conditions noted are these: Mus musculus, NIH3T3, 120 h, 3T3 cell line, three to five days of compound treatment, read-out: 3T3 del_T790M IC50. The method, then:
as §1

A further experiment concerns the target EGFR E746-A750 deletion (Homo sapiens, UniProt P00533, DEL746-750). Put plainly: pEGFR Y1068 ELISA assay, NIH3T3/EGFR_E746-A750 deletion cells.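 Also: sandwich ELISA on cell lysates detecting phospho-EGFR at Tyr1068, compounds run as 11-point threefold dilution series in duplicate, IC50 from inhibition of this phosphorylation signal.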 The conditions noted are these: 3T3 Del cells, 2 hrs compound treatment; read-out: ELISA7E 3T3 Del IC50.
Another experiment addresses EGFR L858R+T790M (Homo sapiens, UniProt P00533, L858R/T790M). Nature of the experiment: pEGFR Y1068 ELISA assay, NIH3T3/EGFR_L858R+T790M cells.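 Also: sandwich ELISA of EGFR phosphorylated at Tyr1068 in lysates of stably transfected NIH/3T3 cells, 11-point threefold dilution series run in duplicate.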 The conditions noted are these: 3T3 cell line, 2 hrs compound treatment; read-out: pEGFRY1068 ELISA3T3T790M—L858R IC50.

T2 sequence (P00533 25-1210 T790M/L858R): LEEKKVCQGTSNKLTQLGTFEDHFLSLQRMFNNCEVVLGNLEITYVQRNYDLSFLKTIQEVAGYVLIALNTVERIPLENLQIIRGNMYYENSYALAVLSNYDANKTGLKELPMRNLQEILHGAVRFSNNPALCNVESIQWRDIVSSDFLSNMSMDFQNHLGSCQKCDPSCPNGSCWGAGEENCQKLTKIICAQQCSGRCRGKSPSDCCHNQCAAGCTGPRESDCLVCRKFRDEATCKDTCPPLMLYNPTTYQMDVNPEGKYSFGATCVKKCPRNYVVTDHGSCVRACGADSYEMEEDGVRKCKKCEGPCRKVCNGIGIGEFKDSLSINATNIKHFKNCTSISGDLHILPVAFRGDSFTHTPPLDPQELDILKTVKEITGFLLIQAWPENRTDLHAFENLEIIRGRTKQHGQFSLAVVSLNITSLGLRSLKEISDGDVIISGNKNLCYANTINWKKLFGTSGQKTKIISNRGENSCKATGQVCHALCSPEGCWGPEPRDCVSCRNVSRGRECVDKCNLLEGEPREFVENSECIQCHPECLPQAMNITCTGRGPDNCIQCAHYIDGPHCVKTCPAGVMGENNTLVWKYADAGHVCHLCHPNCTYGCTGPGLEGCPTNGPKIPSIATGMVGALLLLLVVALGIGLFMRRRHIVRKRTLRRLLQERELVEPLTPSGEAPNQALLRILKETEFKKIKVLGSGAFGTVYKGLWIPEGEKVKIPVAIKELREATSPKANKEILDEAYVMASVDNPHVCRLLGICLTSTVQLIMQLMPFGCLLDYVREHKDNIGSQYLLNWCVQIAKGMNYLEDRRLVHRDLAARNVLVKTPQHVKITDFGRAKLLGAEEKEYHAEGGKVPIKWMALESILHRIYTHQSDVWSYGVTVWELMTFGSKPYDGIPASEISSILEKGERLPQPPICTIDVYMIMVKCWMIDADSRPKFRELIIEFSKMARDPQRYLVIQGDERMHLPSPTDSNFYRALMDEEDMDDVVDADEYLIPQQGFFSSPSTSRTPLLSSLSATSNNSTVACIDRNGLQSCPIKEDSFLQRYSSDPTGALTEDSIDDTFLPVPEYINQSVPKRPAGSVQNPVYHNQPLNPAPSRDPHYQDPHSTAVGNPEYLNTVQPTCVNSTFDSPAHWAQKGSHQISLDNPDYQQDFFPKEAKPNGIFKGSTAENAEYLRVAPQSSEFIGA
EGFR L858R+T790M, sequence (P00533 25-1210 T790M/L858R): as above
EGFR L858R, sequence (P00533 25-1210 L858R): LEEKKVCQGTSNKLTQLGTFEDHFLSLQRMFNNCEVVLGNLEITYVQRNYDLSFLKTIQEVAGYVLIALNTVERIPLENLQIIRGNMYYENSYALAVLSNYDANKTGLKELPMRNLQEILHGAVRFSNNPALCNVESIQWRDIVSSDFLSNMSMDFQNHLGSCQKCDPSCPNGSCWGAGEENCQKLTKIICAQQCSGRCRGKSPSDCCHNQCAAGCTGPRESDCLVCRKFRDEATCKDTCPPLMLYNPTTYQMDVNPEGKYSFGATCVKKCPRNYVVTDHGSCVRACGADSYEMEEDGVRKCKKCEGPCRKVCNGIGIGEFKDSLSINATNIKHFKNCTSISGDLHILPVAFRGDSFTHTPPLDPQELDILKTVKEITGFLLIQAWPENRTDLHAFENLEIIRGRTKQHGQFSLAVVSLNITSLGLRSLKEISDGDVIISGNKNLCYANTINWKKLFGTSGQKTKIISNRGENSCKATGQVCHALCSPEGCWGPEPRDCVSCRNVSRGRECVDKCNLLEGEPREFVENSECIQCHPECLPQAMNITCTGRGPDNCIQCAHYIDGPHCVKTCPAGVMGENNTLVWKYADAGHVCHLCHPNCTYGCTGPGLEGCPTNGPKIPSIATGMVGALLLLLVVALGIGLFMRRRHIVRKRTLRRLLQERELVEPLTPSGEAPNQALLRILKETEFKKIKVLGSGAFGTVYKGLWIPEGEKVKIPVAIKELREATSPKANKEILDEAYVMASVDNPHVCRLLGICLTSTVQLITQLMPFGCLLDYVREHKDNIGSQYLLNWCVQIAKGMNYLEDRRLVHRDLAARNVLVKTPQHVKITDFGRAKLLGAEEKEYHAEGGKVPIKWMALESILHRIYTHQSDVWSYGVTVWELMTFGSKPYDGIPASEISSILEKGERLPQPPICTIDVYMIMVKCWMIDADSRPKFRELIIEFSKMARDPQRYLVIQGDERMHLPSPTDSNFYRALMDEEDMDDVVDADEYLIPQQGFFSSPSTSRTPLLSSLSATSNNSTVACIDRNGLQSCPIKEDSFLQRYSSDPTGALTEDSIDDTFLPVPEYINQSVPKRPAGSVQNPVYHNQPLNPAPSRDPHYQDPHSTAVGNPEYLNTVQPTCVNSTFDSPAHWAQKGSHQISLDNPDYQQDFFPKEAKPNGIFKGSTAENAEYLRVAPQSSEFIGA

For the compound `C=CC(=O)N1C[C@@H]2CN(c3nc(Nc4cnn(C)c4)nc4[nH]cc(Cl)c34)C[C@]2(OC)C1` (single isomer, unassigned) [Example 88], the 50% inhibitory concentration (IC50) on EGFR Del (PC9) is 630 nM; in experiment [1] it was 34 nM; on EGFR L858R, endogenous it was 41 nM.

On to `C=CC(=O)N1C[C@H](COc2nc(Nc3cnn(CC(C)O)c3)nc3[nH]cc(Cl)c23)[C@@H](OC)C1` (single isomer, unassigned) [Example 100], for which the concentration for half-maximal inhibition (IC50) in experiment [2] was > 10000 nM; at EGFR Del (PC9) it was 4250 nM; in experiment [1] it was 153 nM; on EGFR L858R, endogenous, 101 nM.

With `C=CC(=O)N1CCOC2(CCN(c3nc(Nc4cnn(C)c4)nc4[nH]cc(Cl)c34)C2)C1` (single isomer, unassigned) [Example 112], the IC50 is > 10000 nM in experiment [2]; 63 nM in [1]; 241 nM on EGFR L858R, endogenous.

In the case of `C=CC(=O)N[C@@H]1CCCN(c2nc(Nc3cnn(C)c3)nc3[nH]cc(Cl)c23)C1` [Example 11, N-[(3R)-1-{5-chloro-2-[(1-methyl-1H-pyrazol-4-yl)amino]-7H-pyrrolo[2,3-d]pyrimidin-4-yl}piperidin-3-yl]prop-2-enamide], the IC50 with NIH3T3/EGFR_L858R was > 1000 nM; in experiment [2], > 10000 nM; in the experiment with NIH3T3/EGFR L858R+T790M, 100 to 1000 nM; in experiment [3] it was > 1000 nM; on EGFR L858R, 8860 nM; in experiment [1], 525 nM. For the same compound, in experiment [4], the IC50 lay in the range of 100 to 1000 nM.

For `C=CC(=O)Nc1cccc(Oc2nc(Nc3cc[nH]n3)nc3[nH]ccc23)c1` [Example 27], the IC50 in experiment [2] was > 10000 nM; in [1], 146 nM; on EGFR E746-A750 deletion, 56 nM.

Take `C=CC(=O)N(C)[C@H]1C[C@H](Oc2nc(Nc3cn(C)nc3C)nc3[nH]cc(Cl)c23)C1` [Example 62]: the IC50 in the experiment with NIH3T3/EGFR_L858R is 10 to 100 nM; at EGFR L858R+T790M, 10 nM; in [2], > 10000 nM; in the experiment on NIH3T3/EGFR L858R+T790M, 10 to 100 nM; in [3], 10 to 100 nM; at EGFR Del (PC9), 558 nM. The concentration for half-maximal inhibition (IC50) at EGFR L858R was 218 nM; at EGFR E746-A750 deletion it was 237 nM; in experiment [4] it was < 10 nM.

Regarding `C=CC(=O)N1C[C@H](COc2nc(Nc3cn(C)nc3OC)nc3[nH]cc(Cl)c23)[C@@H](OC)C1` [Example 70], the 50% inhibitory concentration (IC50) in the experiment with NIH3T3/EGFR_L858R is 100 to 1000 nM; at EGFR L858R+T790M it was 12 nM; in [2] it was > 10000 nM; in the experiment on NIH3T3/EGFR L858R+T790M, 100 to 1000 nM; in [3] it was 100 to 1000 nM; on EGFR Del (PC9), 592 nM. For the same compound, the results for the IC50 (on EGFR L858R; at EGFR E746-A750 deletion; in experiment [4]) were 113 nM, 269 nM and 10 to 100 nM, respectively.

Take `C=CC(=O)N[C@H]1CC[C@@H](Oc2nc(Nc3cnn(C)c3)nc3[nH]cc(Cl)c23)C1` [Example 77]: the 50% inhibitory concentration (IC50) in the experiment with NIH3T3/EGFR_L858R was > 1000 nM; in experiment [2], > 10000 nM; in the experiment with NIH3T3/EGFR L858R+T790M, 100 to 1000 nM; in experiment [3], > 1000 nM; at EGFR L858R it was 5190 nM; in experiment [1], 301 nM. Further, in experiment [4], the IC50 lay in the range of 100 to 1000 nM.

As to `C=CC(=O)N1C[C@@H]2CN(c3nc(Nc4cnn(C)c4)nc4[nH]cc(Cl)c34)C[C@]2(O)C1` [Example 84], the IC50 on EGFR Del (PC9) is 5240 nM; in experiment [1] it was 175 nM; at EGFR L858R, endogenous, 1100 nM.

Take `C=CC(=O)N1C[C@H](COc2nc(Nc3cnn(CC#N)c3)nc3[nH]cc(Cl)c23)[C@@H](OC)C1` [Example 93]: the IC50 at EGFR Del (PC9) is 383 nM; in [1], 31 nM; at EGFR L858R, endogenous, 26 nM.

With `C=CC(=O)N(C)[C@@H]1CCCN(c2nc(Nc3cnn(C)c3)nc3[nH]cc(Cl)c23)C1` [Example 94], the IC50 was 4430 nM on EGFR Del (PC9); 385 nM in [1]; 608 nM at EGFR L858R, endogenous.

For `C=CC(=O)N(C)[C@H]1C[C@H](Oc2nc(Nc3cnn(C)c3)nc3[nH]cc(Cl)c23)C1` [Example 108], the IC50 in the experiment on NIH3T3/EGFR_L858R was 100 to 1000 nM; on EGFR L858R+T790M, 7 nM; in experiment [2], > 10000 nM; in the experiment with NIH3T3/EGFR L858R+T790M it was 10 to 100 nM; in [3], 10 to 100 nM; on EGFR Del (PC9), 352 nM. The results for the IC50 (on EGFR L858R; on EGFR E746-A750 deletion; in [4]) were 164 nM, 81 nM and < 10 nM, respectively.

By IC50 is commonly meant the concentration at which inhibition is half-maximal.
